ChEMBL document CHEMBL1201862, “PubChem BioAssay data set” (2004)
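Compound exposure: 48 hours, 5 concentrations, 96-well plates. GI50 marks 50% less growth.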 Calls of active or inactive are those of the source. Cut-off read from the data, not from the text of the source: active = GI50 up to about 1.1 µM and inactive = higher.

Columns and labels:
Assay in all cases: DTP human tumour cell line panel, 48 h
BT-549 = tested on: BT-549
RXF 631 = tested on: RXF 631
SNB-78 = tested on: SNB-78
HOP-18 = tested on: HOP-18
DLD-1 = tested on: DLD-1
DMS-114 = tested on: DMS-114
LXFL 529 = tested on: LXFL 529
DMS-273 = tested on: DMS-273
XF498 = tested on: XF498

Measured: GI50

Nc1nc(Cl)c(N)c(NCC2(CO)CC(Cc3ccccc3)C2)n1 (stereo unspecified)
inactive: BT-549 42.5 µM

CC(=O)O[C@H]1[C@@H](N2CCCCC2)C[C@H]2[C@@H]3CC=C4C[C@@H](N5CCCC5)CC[C@]4(C)[C@H]3CC[C@@]21C
inactive: BT-549 > 100 µM

CCOc1ccc(NCC2CC/C(=C\c3ccccc3OC)C2=O)cc1 (stereo unspecified)
inactive: RXF 631 23.8 µM | SNB-78 16.5 µM | HOP-18 15.3 µM | DLD-1 3.09 µM | DMS-114 9.71 µM | LXFL 529 2.56 µM | DMS-273 2.58 µM

C/C(=N\Nc1nc2ccccc2s1)c1cnccn1
inactive: BT-549 11.1 µM

COc1ccc(/N=N/c2c(N)nn(C)c2N)cc1
inactive: RXF 631 > 100 µM | SNB-78 > 100 µM | HOP-18 92.3 µM | DLD-1 > 100 µM | DMS-114 > 100 µM | LXFL 529 > 100 µM | DMS-273 > 100 µM

COC(=O)c1c(C#N)c(N)nc2c1CCC2
inactive: BT-549 > 100 µM

COc1ccc2cc1Oc1ccc(cc1)CC1c3cc4c(cc3CCN1C)Oc1c(OC)cc3c(c1O4)C(C2)N(C)CC3 (stereo unspecified)
inactive: RXF 631 4.99 µM | XF498 1.94 µM | SNB-78 17.6 µM | DLD-1 2.96 µM | LXFL 529 2 µM | DMS-273 1.63 µM

N#Cc1c(N2CCC(O)C2)c2ccccc2n2c1nc1ccccc12 (stereo unspecified)
inactive: BT-549 46.9 µM

CC(=O)O[C@H]1CC[C@@H](OC(C)=O)[C@H]2[C@H](O)[C@H](O)[C@@H]1n1c(=O)n(-c3ccccc3)c(=O)n12
inactive: BT-549 > 100 µM

CS(=O)(=O)c1c(N)c2nc(Cl)cn2c2nc3ccccc3nc12
inactive: RXF 631 > 100 µM | XF498 > 100 µM | SNB-78 > 100 µM | DLD-1 > 100 µM | DMS-114 > 100 µM | LXFL 529 > 100 µM | DMS-273 > 100 µM

O=C(C#Cc1cnc(O)nc1O)c1ccccc1
inactive: RXF 631 14 µM | SNB-78 10.4 µM | HOP-18 15.7 µM | DLD-1 11.3 µM | DMS-114 15.1 µM | DMS-273 14.9 µM

O=C1C/C(=C/c2ccc(/C=C3/CC(=O)N(c4cccc(Br)c4)C3=O)cc2)C(=O)N1c1cccc(Br)c1
inactive: XF498 26.5 µM | SNB-78 36.2 µM | HOP-18 > 100 µM | DLD-1 > 100 µM | DMS-114 > 100 µM | LXFL 529 > 100 µM | DMS-273 > 100 µM

C=Cc1c(C)c(O)cc2c1-c1ccc(O)c(C)c1CC2
inactive: BT-549 19.5 µM

CC1CN(CCO)CCN1c1ccccc1 (stereo unspecified)
inactive: BT-549 > 100 µM

CC1=NC(=Cc2ccc(O)cc2)C(=O)N1n1c(-c2ccccc2)nc2ccccc2c1=O
inactive: BT-549 > 100 µM

CC(=O)OCCOCNC(=S)N/N=C(\C)c1ccco1
inactive: RXF 631 > 100 µM | SNB-78 > 100 µM | HOP-18 > 100 µM | DLD-1 > 100 µM | DMS-114 > 100 µM | LXFL 529 > 100 µM | DMS-273 > 100 µM

CN(N=O)C(=O)N[C@H]1C(O)O[C@H](CO)[C@@H](O)[C@@H]1O (stereo partly specified)
inactive: XF498 557 µM | SNB-78 545 µM | HOP-18 222 µM | DLD-1 632 µM | DMS-114 504 µM | LXFL 529 > 750 µM | DMS-273 528 µM | BT-549 > 750 µM

O[C@@H]1C=C[C@]23CCN(Cc4cc5c(cc42)OCO5)[C@@H]3C1
inactive: BT-549 > 100 µM

C=CCC(OCCOCC)c1cc(OCCOCC)ccc1OC (stereo unspecified)
inactive: XF498 > 100 µM | SNB-78 > 100 µM | LXFL 529 > 100 µM | DMS-273 > 100 µM

COc1cccc(N2C(=O)C3CC(CC(C)(C)C)c4c([nH]c5ccccc45)C3C2=O)c1 (stereo unspecified)
inactive: BT-549 9.51 µM

C1CN2CCO[SiH](O1)OCC2
inactive: SNB-78 > 100 µM | HOP-18 > 100 µM | DLD-1 > 100 µM | DMS-114 > 100 µM | LXFL 529 > 100 µM | DMS-273 > 100 µM

CCOC(=O)C1CCCCN1C(=O)Cc1c[nH]c2ccccc12 (stereo unspecified)
inactive: BT-549 94.8 µM

Cc1cc(=O)n2nc(CSc3nnc(Sc4cc(O)ccc4O)s3)sc2n1
inactive: BT-549 39.3 µM

COc1cc(NCCC2CCCCN2)c2ncccc2c1 (stereo unspecified)
inactive: BT-549 > 100 µM

O=C1c2ccccc2C(=O)c2c(NCCNCCO)ccc(O)c21
inactive: XF498 4.89 µM | SNB-78 4.61 µM | HOP-18 9.27 µM | DLD-1 3.33 µM | DMS-114 4.59 µM | LXFL 529 3.69 µM | DMS-273 2.22 µM
